Data: article PMC12596500, “Affinity-selected peptide ligands specifically bind i-motif DNA and modulate c-Myc gene expression” (Nucleic Acids Research, 2025)
Peptide text beside a SMILES is read from it.

How the values were obtained:
[1] = test system: c-MycC52; assay: 1H NMR of c-MycC52 with peptide; format: binding; conditions: 50 µM c-MycC52, one equivalent of peptide, 10 mM sodium cacodylate pH 6.6, 10% D2O, 283 K, 600 MHz
Protocol: (§1) NMR: ^1H NMR spectra of c-MycC52 were recorded at 283 K using a Bruker Avance NEO 600 MHz spectrometer equipped with QCI-F cryoprobe operating Topspin 4.5.0. Spectra were recorded with excitation sculpting, at 27.75 ppm spectral width, 1 s acquisition time, and 1 s recycle delay. Spectra of the imino proton region were acquired with a 1D SOFAST excitation scheme with a 1293 μs Pc9_4_120 excitation pulse and 720 μs Reburp refocusing pulse, centred at 13 ppm, a 29.75 ppm spectral width, 115 ms acquisition time, and 100 ms recycle delay. Samples were annealed at a final concentration of 50 µM in 10 mM sodium cacodylate (pH 6.6). 10% D2O and 0.01% sodium trimethylsilylpropanesulfonate (DSS) were added immediately before recording NMR spectra experiments. Spectra were processed with exponential line broadening and referenced to the Sodium trimethylsilylpropanesulfonate (DSS) chemical shift. The chemical shift of the cacodylate buffer resonance was used to monitor potential pH changes between samples.
(§2) Given the selectivity of the Pep-PTN and Pep-VSE peptides for the c-Myc iM structure, both in the binding experiments and also the in vitro gene assays, we considered potential binding modes. We recorded NMR spectra of the c-MycC52 oligonucleotide in the presence and absence of Pep-VSE to give insights into potential binding sites (Supplementary Figs S17–S20). […]

[2] = Solubility and aggregation state seen by NMR; format: physicochemical; conditions: one equivalent of peptide to 50 µM c-MycC52, 10 mM sodium cacodylate pH 6.6, 10% D2O, 283 K, read-out 1H NMR
Protocol: as §1, §2

CC(=O)N[C@H](C(=O)N[C@@H](CO)C(=O)N[C@@H](CCC(=O)O)C(=O)N[C@@H](C)C(=O)N[C@@H](Cc1c[nH]c2ccccc12)C(=O)N[C@@H](CCCCN)C(=O)N[C@@H](CCC(=O)O)C(=O)N[C@H](C(=O)N[C@@H](CCCCN)C(=O)NCC(=O)N[C@@H](Cc1ccccc1)C(=O)N[C@@H](Cc1ccccc1)C(N)=O)C(C)C)C(C)C [Pep-VSE] (Ac-VSEAWKEVKGFF-NH2)
effect on imino resonances of c-MycC52 (NMR) [1]: no perturbations to imino resonances | solubility and aggregation state of the peptide (NMR) [2]: soluble and not aggregated
